Data reported in US7390833B2, “Method for treating ADAMTS-5-associated disease” (Wyeth, priority 2003, dated 2008).

Assays:
[1] = biological target: T1, ADAMTS-5 (Agg-2), purified recombinant human Aggrecanase-2 (Ag2t-Phe628-Strep) (Homo sapiens, UniProt Q9UNA0); assay: Inhibition of aggrecanase activity of ADAMTS-5 (Agg-2), continuous fluorescent quenched-peptide assay (WAKB-5 substrate); format: biochemical; conditions: concentration that inhibits 50% of the aggrecanase activity of ADAMTS-5 (Agg-2); substrate 25 μM, pH 7.4, room temperature
T1 construct: the form used is denoted as Ag2t-Phe628-Strep (MW=41,737)
T1 sequence (Q9UNA0 262-628): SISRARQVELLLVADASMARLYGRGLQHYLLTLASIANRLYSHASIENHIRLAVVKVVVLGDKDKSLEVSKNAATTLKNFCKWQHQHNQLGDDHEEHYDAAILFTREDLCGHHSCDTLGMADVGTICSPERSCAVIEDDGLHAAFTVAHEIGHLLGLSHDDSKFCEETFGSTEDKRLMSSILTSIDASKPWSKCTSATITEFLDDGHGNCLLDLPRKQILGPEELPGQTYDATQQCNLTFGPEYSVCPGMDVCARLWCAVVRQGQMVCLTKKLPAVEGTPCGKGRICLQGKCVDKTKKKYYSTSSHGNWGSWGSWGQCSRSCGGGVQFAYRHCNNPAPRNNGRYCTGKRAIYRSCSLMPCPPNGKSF
Protocol: The biaryl sulfonamide compounds of the present invention were tested for their ability to inhibit the aggrecanase activity of ADAMTS-4 (Agg-1) and ADAMTS-5 (Agg-2).
A continuous assay was used in which the substrate upon which Agg-1 and […] acts is a synthetic peptide containing a fluorescent group that is quenched by energy transfer. Cleavage of the peptide by the aggrecanase enzyme results in a large increase in fluorescence. The initial rates of the reaction are compared to the initial rates of reactions containing the biaryl sulfonamide compounds in order to assess the inhibitor potency of the compounds.
The source of enzyme in the assay is purified recombinant human Aggrecanase-2. More specifically, the form used is denoted as Ag2t-Phe628-Strep (MW=41,737). This form is truncated relative to the full-length enzyme and contains an affinity tag. Aliquots of this enzyme were stored at −80° C. in 25 mM Tris (pH 8.0), 100 mM NaCl, 5 mM CaCl2, 10 μM ZnCl2, 10% glycerol.
The substrate in the assay is a synthetic peptide that is designed after a portion of brevican, one of the naturally occurring substrates of Aggrecanase-2. […] WAKB-5 (mass=1740) was custom synthesized by AnaSpec, Inc. (San Jose, Calif.) and was >95% pure based on HPLC analysis. […] Stock solutions of the substrate were prepared with MilliQ water and aliquots were stored at −80° C. The concentration of this substrate stock was spectrophotometrically determined using the extinction coefficient at 354 nm of 18,172 M^−1 cm^−1.
The assay buffer (pH 7.4) consisted of 50 mM Hepes, 100 mM NaCl, 5 mM CaCl2, 0.1% CHAPS, 5% glycerol. Each well of black polystyrene 96-well or 384-well plates contained a reaction consisting of assay buffer, purified Agg-2 (diluted with assay buffer), and varied concentrations of inhibitor (prepared by serial dilution in DMSO in 96-well polypropylene plates). The plates were then incubated at room temperature for 10 minutes. The enzymatic reactions were initiated by adding substrate to a final concentration of 25 μM and were mixed by pipetting up and down. The initial rates of the cleavage reactions were determined at room temperature with a fluorescence plate reader immediately after substrate addition.
Analysis of the results was conducted by generating a plot of time vs. RFU for each sample. This was used as the “progress curve” of the reaction. The slope for the portion of the progress curve that is most linear was then determined. This slope (RFU/min) was used as the initial rate of the reaction. Plots of the inhibitor concentration vs. the initial cleavage rate were then fit to the following equation: y=Vmax*(1−(x^n/(K^n+x^n))), whereby x=inhibitor concentration, y=initial rate, Vmax=initial rate in the absence of inhibitor, n=slope factor, and K=IC50 for the inhibition curve.

ADAMTS-4 (Agg-1) = biological target: T2, ADAMTS-4 (Agg-1) (Homo sapiens, UniProt O75173); assay: Inhibition of aggrecanase activity of ADAMTS-4 (Agg-1), continuous fluorescent quenched-peptide assay; format: biochemical; conditions: concentration that inhibits 50% of the aggrecanase activity of ADAMTS-4 (Agg-1);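 also: purified enzyme preincubated 10 min with inhibitor at room temperature, then initial substrate cleavage rate (RFU/min) read by fluorescence plate reader versus the uninhibited rate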
T2 sequence (O75173 213-837): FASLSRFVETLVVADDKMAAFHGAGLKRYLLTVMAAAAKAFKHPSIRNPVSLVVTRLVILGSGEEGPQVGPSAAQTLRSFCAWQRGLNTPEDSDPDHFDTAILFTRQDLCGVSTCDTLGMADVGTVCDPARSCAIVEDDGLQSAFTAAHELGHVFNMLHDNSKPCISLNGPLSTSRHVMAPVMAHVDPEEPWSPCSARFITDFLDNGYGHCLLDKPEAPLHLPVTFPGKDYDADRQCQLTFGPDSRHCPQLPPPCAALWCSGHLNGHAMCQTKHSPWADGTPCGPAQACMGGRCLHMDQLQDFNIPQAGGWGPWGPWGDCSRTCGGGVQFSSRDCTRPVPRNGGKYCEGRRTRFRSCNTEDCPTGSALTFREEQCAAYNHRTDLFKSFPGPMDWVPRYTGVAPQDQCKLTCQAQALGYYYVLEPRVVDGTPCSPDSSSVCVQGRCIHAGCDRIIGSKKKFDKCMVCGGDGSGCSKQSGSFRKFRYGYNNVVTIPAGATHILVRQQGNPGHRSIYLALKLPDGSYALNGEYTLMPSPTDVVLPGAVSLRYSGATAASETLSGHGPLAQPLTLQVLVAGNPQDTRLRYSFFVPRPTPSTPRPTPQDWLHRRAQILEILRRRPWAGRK

IC50 [1] [nM]	IC50 (ADAMTS-4 (Agg-1)) [nM]	Structure (SMILES)
> 100000	300	COc1ccc(C(=O)c2ccc(OCc3ccc(-c4ccc(S(=O)(=O)N[C@@H](C(=O)O)C(C)C)cc4)cc3)cc2)cc1
67000	1900	CC(C)[C@@H](NS(=O)(=O)c1ccc(-c2ccc(COc3ccc(C(=O)N4CCCC4)cc3)cc2)cc1)C(=O)O
13000	1100	CC(C)[C@@H](NS(=O)(=O)c1ccc(-c2ccc(COc3cccc(O)c3)cc2)cc1)C(=O)O
12600	1000	CC(=O)c1cccc(OCc2ccc(-c3ccc(S(=O)(=O)N[C@@H](C(=O)O)C(C)C)cc3)cc2)c1
11300	1700	CC(C)[C@@H](NS(=O)(=O)c1ccc(-c2ccc(COc3ccc(F)cc3)cc2)cc1)C(=O)O
10700	1600	COc1ccc(OCc2ccc(-c3ccc(S(=O)(=O)N[C@@H](C(=O)O)C(C)C)cc3)cc2)cc1
8200	–	CC(C)[C@@H](NS(=O)(=O)c1ccc(-c2ccc(COc3cccc(F)c3)cc2)cc1)C(=O)O
7000	400	CC(=O)c1ccc(OCc2ccc(-c3ccc(S(=O)(=O)N[C@@H](C(=O)O)C(C)C)cc3)cc2)cc1
6500	400	CC(C)[C@@H](NS(=O)(=O)c1ccc(-c2ccc(COc3cccc(O)n3)cc2)cc1)C(=O)O
6300	1900	COc1ccc(COc2ccc(-c3ccc(S(=O)(=O)N[C@@H](C(=O)O)C(C)C)cc3)cc2)cc1
5800	1800	COc1cccc(OCc2ccc(-c3ccc(S(=O)(=O)N[C@@H](C(=O)O)C(C)C)cc3)cc2)c1
5400	600	CC(C)[C@@H](NS(=O)(=O)c1ccc(-c2ccc(COc3ccc(NC(=O)OC(C)(C)C)cc3)cc2)cc1)C(=O)O
2600	100	CC(C)[C@@H](NS(=O)(=O)c1ccc(-c2ccc(COc3ccc(C(=O)C4CCCCC4)cc3)cc2)cc1)C(=O)O
2000	200	CC(C)[C@@H](NS(=O)(=O)c1ccc(-c2ccc(COc3ccc(C(=O)c4ccccc4)cc3)cc2)cc1)C(=O)O
800	400	CC(C)[C@@H](NS(=O)(=O)c1ccc(-c2ccc(COc3ccc(C4CCCC4)cc3)cc2)cc1)C(=O)O
8400	100	CC(C)C(=O)c1ccc(OCc2ccc(-c3ccc(S(=O)(=O)N[C@@H](C(=O)O)C(C)C)cc3)cc2)cc1 [drawing 151]
8400	100	CC(C)C(=O)c1ccc(OCc2ccc(-c3ccc(S(=O)(=O)N[C@@H](C(=O)O)C(C)C)cc3)cc2)cc1 [drawing 152]
2500	100	CC(C)[C@@H](NS(=O)(=O)c1ccc(-c2ccc(COc3ccc(C(=O)c4ccc(F)cc4)cc3)cc2)cc1)C(=O)O [drawing 171]
2400	100	CC(C)[C@@H](NS(=O)(=O)c1ccc(-c2ccc(COc3ccc(C(=O)c4ccc(F)cc4)cc3)cc2)cc1)C(=O)O [drawing 172]

The next lines start with the compound.

Structure (SMILES)	IC50 [1] [nM]	IC50 (ADAMTS-4 (Agg-1)) [nM]
CC(C)[C@@H](NS(=O)(=O)c1ccc(-c2ccc(COc3ccc(Oc4ccccc4)cc3)cc2)cc1F)C(=O)O	> 200000	100
CC(C)[C@@H](NS(=O)(=O)c1ccc(-c2ccc(COc3cccc4[nH]ccc34)cc2)cc1)C(=O)O	12000	1900
Cc1cc(-c2ccc(COc3ccc4c(c3)CCCC4=O)cc2)ccc1S(=O)(=O)N[C@@H](C(=O)O)C(C)C	11200	900
CC(C)[C@@H](NS(=O)(=O)c1ccc(-c2ccc(COc3ccc(Oc4ccccn4)cc3)cc2)cc1)C(=O)O	10600	900
CC(C)[C@@H](NS(=O)(=O)c1ccc(-c2ccc(COc3ccc4c(c3)CCCC4=O)cc2)cc1)C(=O)O	7500	200
CC(C)[C@@H](NS(=O)(=O)c1ccc(-c2ccc(COc3ccc4c(c3)CCCC4=O)cc2)cc1F)C(=O)O	6600	200
CC(C)[C@@H](NS(=O)(=O)c1ccc(-c2ccccc2)cc1)C(=O)O	5000	2600
Cc1cccc(Oc2ccc(OCc3ccc(-c4ccc(S(=O)(=O)N[C@@H](C(=O)O)C(C)C)cc4)cc3)cc2)n1	4000	700
Cc1cccc(Oc2ccc(OCc3ccc(-c4ccc(S(=O)(=O)N[C@@H](C(=O)O)C(C)C)c(F)c4)cc3)cc2)n1	3500	900
Cc1c(COc2ccc(-c3ccc(S(=O)(=O)N[C@@H](C(=O)O)C(C)C)cc3)cc2)oc2ccccc12	3400	1100
CC(C)[C@@H](NS(=O)(=O)c1ccc(-c2ccc(COc3cccc(C(=O)c4ccccc4)c3)cc2)cc1)C(=O)O	3400	200
Cc1cccc(Oc2ccc(OCc3ccc(-c4ccc(S(=O)(=O)N[C@@H](C(=O)O)C(C)C)c(Cl)c4)cc3)cc2)n1	3200	900
COc1cc(COc2ccc(-c3ccc(S(=O)(=O)N[C@@H](C(=O)O)C(C)C)cc3)cc2)cc(OC)c1	3200	1900
CC(C)[C@@H](NS(=O)(=O)c1ccc(-c2ccc(OCc3ccc4c(c3)OCCO4)cc2)cc1)C(=O)O	3000	1400
O=C(O)CC[C@H](NC(=O)c1ccc(-c2ccccc2)cc1)C(=O)NCc1ccc(F)cc1	2800	200
CC(C)[C@@H](NS(=O)(=O)c1ccc(-c2ccc(COc3cccc(C(=O)C4CCCCC4)c3)cc2)cc1)C(=O)O	2400	400
CC(C)[C@@H](NS(=O)(=O)c1ccc(-c2ccc(COc3ccc4c(c3)CCC4)cc2)cc1)C(=O)O	2400	400
CC(C)[C@@H](NS(=O)(=O)c1ccc(-c2ccc(COc3cc(C(F)(F)F)nc4c(C(F)(F)F)cccc34)cc2)cc1)C(=O)O	1800	200
CC(C)[C@@H](NS(=O)(=O)c1ccc(-c2ccc(COc3ccc(Oc4ccccc4)cc3)cc2)cc1)C(=O)O	400	400
